Test [1] relates to Polymorphonuclear Leukocytes. The experiment in a line: Mouse Carrageenan Peritonitis (PMN infiltration). The format is in vivo, Balb/c mice. An excerpt: (§1) In the following Examples where mice were used, they were male Balb/c mice (20-28 g), and where rats were used, they were male Lewis rats (180-210 g). All mice and rats were obtained from Charles River Breeding Laboratories, Kingston, N.Y. Within a single experiment, mice and rats were sex and age matched.
(§2) The compounds of Formula (IA) were used either as the free base or in the appropriate salt form. Levamisole was used as the hydrochloride salt. The compounds were homogenized in 0.5% tragacanth. Compounds were administered by gavage at the indicated dose in a final volume of 10 ml/kg. Nordihydroguaiaretic acid (NDGA) was solubilized in dimethylacetamide and diluted with olive oil for subcutaneous administration.
Mice were pretreated with either the test compound or vehicle one hour before the intraperitoneal injection of a 1.0% carrageenan suspension in saline (0.2 ml/ mouse). Mice were sacrificed by cervical dislocation two hours after injection, and 3.0 ml of phosphate buffered saline, without Ca⁺⁺ or Mg⁺⁺, was injected into the peritoneum. Following massage, a 2.0 ml aliquot of the lavage fluid was removed, and the total cell count determined on a Coulter counter and differential cell count determined by microscopic examination of Giesma-stained slides.

Test [2] has as its system Arachidonic Acid-Induced Inflammation of the Mouse Ear. The test can be described thus: Arachidonic acid-induced mouse ear inflammation. The format is in vivo, Balb/c mice. The settings on record: for % Inhibition of Ear Swelling: Table 7A, NS = not significant; for % Change / Increase in Ear Thickness at 1 Hour (x 10⁻³ cm): Table 7, p.o.
From the text: as §1, §2
Arachidonic acid in acetone (2 mg/20 ul) was applied to the inner surface of the left ear. The thickness of both ears was then measured with a dial micrometer one hour after treatment, and the data were expressed as the change in thickness (10⁻³ cm) between treated and untreated ears.
Test compounds were given orally in 0.5% tragacanth at the times indicated in the text prior to the topical application of arachidonic acid.
Parenteral administration of compound was accomplished by subcutaneous injection of solution as indicated.

The next test concerns the target T1, 5-LO (Rattus norvegicus, UniProt P12527).
T1 construct: The activities of these enzymes in extracts of RBL-1 cells were assayed; host or cells: RBL-1 cells, disrupted by nitrogen cavitation; 10,000 x g or 100,000 x g supernatant
T1 sequence (P12527 1-673): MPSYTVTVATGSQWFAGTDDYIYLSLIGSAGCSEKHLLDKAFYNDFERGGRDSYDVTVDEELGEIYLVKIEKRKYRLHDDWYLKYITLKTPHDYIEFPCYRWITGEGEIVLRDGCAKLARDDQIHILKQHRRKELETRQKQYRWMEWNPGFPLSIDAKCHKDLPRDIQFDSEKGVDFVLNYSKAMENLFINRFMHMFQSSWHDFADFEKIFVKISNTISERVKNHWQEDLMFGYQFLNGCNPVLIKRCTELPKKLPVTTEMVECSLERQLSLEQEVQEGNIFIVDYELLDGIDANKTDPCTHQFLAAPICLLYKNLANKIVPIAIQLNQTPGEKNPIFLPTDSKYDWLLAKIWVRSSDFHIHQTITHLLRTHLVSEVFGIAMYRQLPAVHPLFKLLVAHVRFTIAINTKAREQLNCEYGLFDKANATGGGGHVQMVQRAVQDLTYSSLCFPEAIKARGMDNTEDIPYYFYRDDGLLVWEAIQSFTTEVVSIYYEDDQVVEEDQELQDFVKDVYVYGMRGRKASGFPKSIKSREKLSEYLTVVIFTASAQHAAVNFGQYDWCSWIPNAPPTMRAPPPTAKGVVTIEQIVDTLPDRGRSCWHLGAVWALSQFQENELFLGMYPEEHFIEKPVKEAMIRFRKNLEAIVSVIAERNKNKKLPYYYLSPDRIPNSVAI
The experiment in a line: di-HETE production by RBL-1 high speed supernatant. Type of test: biochemical. The settings on record: Table 9A; di-HETE production by RBL-1 high speed supernatant; read-out: 5-LO IC50. Here is the method:
(§3) For in vitro experiments, compounds were dissolved at appropriate concentrations in ethanol or DMSO (dimethylsulfoxide) (final concentration <1.0%) and then diluted to final concentrations using the buffers indicated in the text.
(§4) The activities of these enzymes in extracts of RBL-1 cells were assayed using the method of Jakschik and Lee, Nature, 287, 51-52 (1980). RBL-1 cells were obtained from the American Type Culture Collection (#CRL 1378) and were grown at 37°C (5% CO₂ in air) in spinner culture in MEM supplemented with 10% heat inactivated fetal calf serum. Harvested cells were washed with 50 mM sodium phosphate buffer, pH 7.0, containing 1 mM EDTA and 0.1% gelatin, resuspended in fresh buffer (5 x 10⁷ cells/ml) and disrupted by nitrogen cavitation using the Parr bomb at 750 psi for 10 min. The broken cell extract was then centrifuged at 10,000 x g for 20 minutes and the supernatant centrifuged at 100,000 x g for 60 minutes. Aliquots (0.25 mls) of the supernatant were preincubated with or without drugs for 10 min, after which 10 ul CaCl₂ (50 mM) was added and the reaction was initiated with 2.5 ul of 2.5 mM arachidonic acid-1-¹⁴C (final concentration was […]; specific activity 20,000 dpm/nmole). After incubation for 3 min at 37°C, the reaction was terminated by addition of 2 volumes (0.5 ml) ice cold acetone and the sample was allowed to deproteinize on ice for 10 min prior to centrifugation at 1,000 x g for 10 min. The deproteinized supernatant was adjusted to pH 3.5 with 2N formic acid and extracted with 2 volumes of ice cold ethyl acetate. The extracted samples were dried under argon, redissolved in ethyl acetate and applied to Whatman LK5D thin layer chromatography (TLC) plates which were developed using the A-9 solvent system [organic phase of ethyl acetate: 2,2,5-trimethylpentane:acetic acid: water (110:50:20:10)] described by Hamberg and Samuelsson, J. Biol. Chem., 241, 257-263 (1966). Arachidonic acid, 5-HETE, di-HETE and PGD₂ were quantified with a Berthold LB 2832 autoscanner.
(§5) The 5-lipoxygenase and LTA₄ synthetase activities were further studied under the following conditions. An additional centrifugation of the RBL-1 supernatant was run at 100,000 x g for 60 min, to remove the particulate cyclooxygenase activity. Sample incubation was done under conditions similar to those described above, i.e., 2 mM CaCl₂ and 25 uM arachidonic acid-1-¹⁴C, however, with an incubation time of 5 min at […]. Under these conditions, only the 5-lipoxygenase pathway metabolites were detectable. The 5-HETE and di-HETEs were formed at a linear rate, and […] amounts of the arachidonic acid-1-¹⁴C substrate were utilized.

A further test has as its target T2, 5-Lipoxygenase (Rattus norvegicus, UniProt P12527).
T2 construct: The activities of these enzymes in extracts of RBL-1 cells were assayed; host or cells: RBL-1 cells, disrupted by nitrogen cavitation; 10,000 x g or 100,000 x g supernatant
T2 sequence (P12527 1-673): T1 sequence (P12527 1-673)
The experiment in a line: 5-HETE production by RBL-1 high speed supernatant. The format is biochemical. The settings on record: Table 8A; RBL-1 high speed supernatant. On the procedure: as §3, §4, §5

In test [3] the test system is Production of PGE₂ by Mouse Peritoneal Exudate Cells. The experiment in a line: PGE2 production by peritoneal macrophages. The format is cell-based. Here is the method:
as §3
Mice were injected intraperitoneally with 350 »g Corynebacterium parvum and the peritoneal exudate cell population was harvested 12-14 days later by peritoneal lavage with cold phosphate-buffered saline, and resuspended in Eagles minimal essential medium supplemented with 5% fetal calf serum. […] Test compounds were added (100 ul) to bring the final volume to 1.0 ml. Lipopolysaccharide (5 »g/ml) was then added to stimulate PGE₂ synthesis. After incubation at 37°C for 2 hours, cell-free supernatants were harvested, placed in polypropylene tubes and frozen at -20°C until assayed for their PGE₂ content using a commercial radioimmunoassay kit. IC₅₀ is the concentration that inhibits 50% of control activity.

The mark [4] stands for this setting: Table 2, Experiment 1, 12.5 mg/kg, p.o.
Setting [5] is: Table 2, Experiment 1, 25 mg/kg, p.o.
Where [6] appears, read: Table 2, Experiment 1, 50 mg/kg, p.o.
Where [7] appears, read: Table 2, Experiment 2, 50 mg/kg, s.c.
[8] abbreviates: Macrophage, read-out: IC₅₀ production of PGE₂ by inflammatory macrophages.

Where two headings read alike, the source gives them in different places. Marks after values point to notes of the source that are not given here.

Turning to `CC(=O)OC[C@H]1O[C@@H]([S-])[C@H](OC(C)=O)[C@@H](OC(C)=O)[C@@H]1OC(C)=O.CCP(CC)CC.[Au+]` [Auranofin], in test [1] (Table 3, 2 (mg Au/kg), p.o.), the “PMN x 10⁻⁵/ml (mean ± S.D.)” value was 7.50 ± 1.57 x 10⁻⁵/ml.
Regarding `CCOC(=O)N1C=CC(c2c(-c3ccc(F)cc3)nc3n2CCS3)C=C1` [Compound 48], the “% Inhibition of Ear Swelling” value in test [2] (50 mg/kg s.c. or i.p.) is given as 25*** %. Besides, the IC50 at 5-LO is 7 µM; against 5-Lipoxygenase, 9 µM.
For the compound `C[C@@H]1C[C@H]2[C@@H]3CCC4=CC(=O)C=C[C@]4(C)[C@@]3(F)[C@@H](O)C[C@]2(C)[C@@]1(O)C(=O)CO` [Dexamethasone], the “% Change” value in test [2] (25 mg/kg, pretreated at 2 hrs) was -35^c %; in test [1] (setting [4]), -54^b %; in test [1] (setting [5]), -55^b %; in test [1] (setting [6]) it was -69^b %. In addition, in test [2] (25 mg/kg, pretreated at 2 hrs), the “Increase in Ear Thickness at 1 Hour (x 10⁻³ cm)” value stood at 18.2 ± 4.1 x 10⁻³ cm. For the same compound, the “PMN x 10⁻⁵/ml (mean ± S.D.)” value in test [1] (setting [4]) is recorded as 9.1 ± 2.0 x 10⁻⁵/ml; in test [1] (setting [5]) it was 8.8 ± 2.6 x 10⁻⁵/ml; in test [1] (setting [6]), 6.1 ± 1.5 x 10⁻⁵/ml.
In the case of `COc1ccc(-c2nc3n(c2-c2ccncc2)CCC3)cc1` [Compound 40, 2-(4-methoxyphenyl)-3-(4-pyridyl)-6,7-dihydro-[5H]-pyrrolo [1,2-a]imidazole], the “% Inhibition of Ear Swelling” value in test [2] (50 mg/kg oral dosing (p.o.)) is reported as 83 (p.o.) %. For the same compound, the values for the IC50 at 5-LO and against 5-Lipoxygenase were 10 µM and 16 µM, respectively.
On to `CC(Cc1ccc(O)c(O)c1)C(C)Cc1ccc(O)c(O)c1` (stereo not drawn) [NDGA, Nordihydroguaiaretic acid], for which, in test [1] (setting [7]), the “% Change” value is given as 41^c % and the “PMN x 10⁻⁵/ml (mean ± S.D.)” value is 5.7 ± 2.1 x 10⁻⁵/ml.
As to `CSc1ccc(-c2nc3n(c2-c2ccc(F)cc2)CCS3)cc1` [Compound 47], in test [2] (50 mg/kg s.c. or i.p.), the “% Inhibition of Ear Swelling” value was 22*** %.
In the case of `COc1ccc2cc([C@H](C)C(=O)O)ccc2c1` [Naproxen], the IC50 worked out at 1.8 µM in test [3] (setting [8]) and 1.8 µM in test [3] (Peritoneal macrophage, read-out: IC₅₀ (»M) production of PGE₂).
In the case of `O=C(c1ccccc1)N1C=CC(c2c(-c3ccc(F)cc3)nc3n2CCS3)C=C1` [Compound 49], the “% Inhibition of Ear Swelling” value in test [2] (50 mg/kg s.c. or i.p.) was 15* %. Moreover, the results for the IC50 at 5-LO and at 5-Lipoxygenase were 53 µM and 73 µM, respectively.
On to `Fc1ccc(-c2nc3n(c2-c2ccncc2)CCC3)cc1` [Compound 39, 2-(4-fluorophenyl)-3-(4-pyridyl)-6,7-dihydro-[5H]-pyrrolo [1,2-a]imidazole], for which the “% Inhibition of Ear Swelling” value in test [2] (50 mg/kg s.c. or i.p.) was 93%. Besides, the IC50 at 5-LO came out at 32 µM; at 5-Lipoxygenase, 67 µM.
For the compound `CC(C)Cc1ccc(C(C)C(=O)O)cc1` (stereo not drawn) [Ibuprofen, reference compound], in test [2] (250 mg/kg), the “% Change” value was “+20^b %” and the “Increase in Ear Thickness at 1 Hour (x 10⁻³ cm)” value was 30.8 ± 2.0 x 10⁻³ cm. For the same compound, in test [3] (setting [8]), the IC50 is 0.5 µM. Also, in test [3] (Peritoneal macrophage, Table 10, LPS-stimulated, C. parvum-elicited peritoneal exudate cells, read-out: IC₅₀ (»M) production of PGE₂), the IC50 is 0.5 µM.
For the compound `c1ccc([C@H]2CN3CCSC3=N2)cc1` [Levamisole], in test [1] (Table 3, 100 mg/kg, p.o.), the “% Change” value is recorded as -37^b % and the “PMN x 10⁻⁵/ml (mean ± S.D.)” value stood at 5.88 ± 2.70 x 10⁻⁵/ml.
As to `CN(C)c1ccc(-c2c(-c3ccc(F)cc3)nc3n2CCS3)cc1` [Compound 10, 5-(4-N,N-Dimethylaminophenyl)-6-(4-fluorophenyl)-2,3-dihydroimidazo[2,1-b]thiazole], in test [2] (50 mg/kg s.c. or i.p.), the “% Inhibition of Ear Swelling” value is 17* %. Moreover, the IC50 on 5-LO was determined as 1.5 µM; against 5-Lipoxygenase, 5 µM.
With `COc1ccc(-c2nc3n(c2-c2ccncc2)CC[S+]3[O-])cc1` (stereo not drawn) [Compound 41], the “% Inhibition of Ear Swelling” value in test [2] (50 mg/kg s.c. or i.p.) is recorded as 45*** %.
In the case of `[O-][S+]1CCn2c1nc(-c1ccncc1)c2-c1ccc(F)cc1` (stereo not drawn) [Compound 42], the “% Inhibition of Ear Swelling” value in test [2] (50 mg/kg s.c. or i.p.) is 50*** %. Further, the IC50 at 5-LO was found to be 60 µM; against 5-Lipoxygenase, 101 µM.

For the origin of these results see patent EP0231622B1, “Inhibition of the 5-lipoxygenase pathway” (priority 1985, dated 1987).
